Test results published in ChEMBL document CHEMBL1909046, “DrugMatrix in vitro pharmacology data”.

What was measured:
[1] = target: T1, Muscarinic acetylcholine receptor M2 (Homo sapiens, UniProt P08172); assay type: cell membranes, CHO-K1, Membrane; conditions: cho-k1; also: in other assays of this panel Not Active means under 50% inhibition at 10 µM
T1 sequence (P08172 whole entry): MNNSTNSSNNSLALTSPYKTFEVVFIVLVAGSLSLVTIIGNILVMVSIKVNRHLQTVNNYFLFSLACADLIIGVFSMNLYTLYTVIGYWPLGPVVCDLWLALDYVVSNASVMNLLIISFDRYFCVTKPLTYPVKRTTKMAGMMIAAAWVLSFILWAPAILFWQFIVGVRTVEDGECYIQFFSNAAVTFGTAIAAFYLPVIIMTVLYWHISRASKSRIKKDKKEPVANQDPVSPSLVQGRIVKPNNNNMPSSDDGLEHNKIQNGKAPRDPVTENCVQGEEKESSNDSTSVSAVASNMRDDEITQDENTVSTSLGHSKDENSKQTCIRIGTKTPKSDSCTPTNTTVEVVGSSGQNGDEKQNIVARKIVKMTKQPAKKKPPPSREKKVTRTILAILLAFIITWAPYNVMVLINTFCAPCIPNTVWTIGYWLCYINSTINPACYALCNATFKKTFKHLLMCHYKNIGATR

[2] = target: T2, Neuropeptide Y receptor type 1 (Homo sapiens, UniProt P25929); assay type: cell membranes, Membrane; conditions: sk-n-mc; also: in other assays of this panel Not Active means under 50% inhibition at 10 µM
T2 sequence (P25929 whole entry): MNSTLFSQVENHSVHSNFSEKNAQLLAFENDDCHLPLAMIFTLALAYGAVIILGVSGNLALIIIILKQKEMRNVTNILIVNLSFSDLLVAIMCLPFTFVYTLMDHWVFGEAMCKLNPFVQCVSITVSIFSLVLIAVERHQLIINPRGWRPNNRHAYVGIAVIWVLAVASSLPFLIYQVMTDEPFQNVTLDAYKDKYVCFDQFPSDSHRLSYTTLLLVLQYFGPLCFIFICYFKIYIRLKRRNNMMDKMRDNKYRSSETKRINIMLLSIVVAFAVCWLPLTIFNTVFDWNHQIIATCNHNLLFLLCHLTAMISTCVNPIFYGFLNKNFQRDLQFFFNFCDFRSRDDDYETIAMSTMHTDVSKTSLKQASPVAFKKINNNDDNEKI

[3] = target: Delta-type opioid receptor (Homo sapiens, UniProt P41143); assay type: cell membranes, HEK293, Membrane; conditions: hek293; also: in other assays of this panel Not Active means under 50% inhibition at 10 µM
[4] = target: T3, Neutrophil elastase (Homo sapiens, UniProt P08246); assay type: tissue-based;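 also: inhibition of neutrophil elastase enzyme activity, measured with a p-nitroanilide-linked peptide substrate; in other assays of this panel Not Active means under 50% inhibition at 10 µM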
T3 sequence (P08246 whole entry): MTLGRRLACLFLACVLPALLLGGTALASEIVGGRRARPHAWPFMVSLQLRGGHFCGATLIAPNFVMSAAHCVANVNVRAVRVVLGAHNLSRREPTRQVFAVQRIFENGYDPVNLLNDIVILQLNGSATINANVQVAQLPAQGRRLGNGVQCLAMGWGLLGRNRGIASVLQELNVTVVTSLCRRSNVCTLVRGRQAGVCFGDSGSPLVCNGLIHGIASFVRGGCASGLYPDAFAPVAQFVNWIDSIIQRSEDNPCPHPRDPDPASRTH

[5] = target: Acetylcholinesterase (Homo sapiens, UniProt P22303); experiment: DRUGMATRIX: Acetylcholinesterase enzyme inhibition (substrate: acetylthiocholine); assay type: cell-based, HEK293; conditions: hek293; Not Active = under 50% inhibition at 10 µM
[6] = target: Adenosine receptor A2a (Homo sapiens, UniProt P29274); experiment: DRUGMATRIX: Adenosine A2A radioligand binding (ligand: […]); assay type: cell membranes, HEK293, Membrane; conditions: hek293; Not Active = under 50% inhibition at 10 µM
[7] = target: Voltage-gated inwardly rectifying potassium channel KCNH2 (Homo sapiens, UniProt Q12809); conditions: hek293; also: in other assays of this panel Not Active means under 50% inhibition at 10 µM
Voltage-gated inwardly rectifying potassium channel KCNH2, sequence (Q12809 whole entry): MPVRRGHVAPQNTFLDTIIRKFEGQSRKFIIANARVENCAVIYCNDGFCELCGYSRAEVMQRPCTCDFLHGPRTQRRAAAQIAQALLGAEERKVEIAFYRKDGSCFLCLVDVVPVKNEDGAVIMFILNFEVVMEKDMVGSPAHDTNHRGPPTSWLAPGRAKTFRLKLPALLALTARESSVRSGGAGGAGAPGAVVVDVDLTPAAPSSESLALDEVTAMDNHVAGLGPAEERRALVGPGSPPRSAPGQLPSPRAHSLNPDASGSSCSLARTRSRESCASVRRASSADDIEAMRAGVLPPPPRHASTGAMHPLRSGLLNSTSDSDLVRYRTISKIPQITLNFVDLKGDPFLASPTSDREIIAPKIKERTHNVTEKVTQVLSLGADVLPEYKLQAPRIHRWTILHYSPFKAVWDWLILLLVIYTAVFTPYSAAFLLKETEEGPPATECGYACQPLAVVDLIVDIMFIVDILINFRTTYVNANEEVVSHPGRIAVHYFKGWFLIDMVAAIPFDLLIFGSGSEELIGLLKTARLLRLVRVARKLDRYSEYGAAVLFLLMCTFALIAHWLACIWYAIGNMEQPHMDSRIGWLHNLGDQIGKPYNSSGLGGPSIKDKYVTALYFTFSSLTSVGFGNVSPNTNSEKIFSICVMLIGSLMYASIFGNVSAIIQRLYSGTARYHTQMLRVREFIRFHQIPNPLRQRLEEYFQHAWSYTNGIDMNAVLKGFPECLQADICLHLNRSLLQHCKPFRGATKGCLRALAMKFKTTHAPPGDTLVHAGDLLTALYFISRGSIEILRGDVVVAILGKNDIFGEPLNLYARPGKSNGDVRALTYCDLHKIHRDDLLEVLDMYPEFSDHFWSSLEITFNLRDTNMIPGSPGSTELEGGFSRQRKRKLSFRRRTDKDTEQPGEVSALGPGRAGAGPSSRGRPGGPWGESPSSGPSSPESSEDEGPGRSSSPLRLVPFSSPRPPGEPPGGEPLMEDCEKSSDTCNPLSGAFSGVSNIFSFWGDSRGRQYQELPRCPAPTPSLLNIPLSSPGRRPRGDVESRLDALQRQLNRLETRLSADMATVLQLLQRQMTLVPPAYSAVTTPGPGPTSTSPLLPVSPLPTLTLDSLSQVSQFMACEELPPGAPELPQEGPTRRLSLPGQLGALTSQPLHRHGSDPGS

Adenosine receptor A2a, sequence (P29274 whole entry): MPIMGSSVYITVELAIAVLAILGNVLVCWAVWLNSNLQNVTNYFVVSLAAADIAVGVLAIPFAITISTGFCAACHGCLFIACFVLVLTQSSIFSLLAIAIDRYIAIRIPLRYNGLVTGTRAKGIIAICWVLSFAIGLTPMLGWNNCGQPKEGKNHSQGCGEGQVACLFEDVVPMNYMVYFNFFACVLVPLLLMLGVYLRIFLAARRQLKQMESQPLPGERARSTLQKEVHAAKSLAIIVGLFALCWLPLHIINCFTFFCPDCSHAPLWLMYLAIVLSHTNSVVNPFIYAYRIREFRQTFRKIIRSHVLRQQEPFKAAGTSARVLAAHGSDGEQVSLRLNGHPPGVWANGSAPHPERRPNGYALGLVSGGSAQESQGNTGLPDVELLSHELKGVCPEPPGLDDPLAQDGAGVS
Delta-type opioid receptor, sequence (P41143 whole entry): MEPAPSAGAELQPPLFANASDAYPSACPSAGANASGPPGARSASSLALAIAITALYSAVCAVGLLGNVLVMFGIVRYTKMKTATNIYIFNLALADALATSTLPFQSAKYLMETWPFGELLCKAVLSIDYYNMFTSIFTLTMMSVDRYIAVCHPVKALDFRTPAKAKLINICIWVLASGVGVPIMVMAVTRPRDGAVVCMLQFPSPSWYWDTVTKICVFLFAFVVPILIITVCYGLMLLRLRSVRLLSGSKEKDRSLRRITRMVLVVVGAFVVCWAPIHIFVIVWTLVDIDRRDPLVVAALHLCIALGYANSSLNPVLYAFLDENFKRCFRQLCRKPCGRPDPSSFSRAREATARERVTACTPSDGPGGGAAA
Acetylcholinesterase, sequence (P22303 whole entry): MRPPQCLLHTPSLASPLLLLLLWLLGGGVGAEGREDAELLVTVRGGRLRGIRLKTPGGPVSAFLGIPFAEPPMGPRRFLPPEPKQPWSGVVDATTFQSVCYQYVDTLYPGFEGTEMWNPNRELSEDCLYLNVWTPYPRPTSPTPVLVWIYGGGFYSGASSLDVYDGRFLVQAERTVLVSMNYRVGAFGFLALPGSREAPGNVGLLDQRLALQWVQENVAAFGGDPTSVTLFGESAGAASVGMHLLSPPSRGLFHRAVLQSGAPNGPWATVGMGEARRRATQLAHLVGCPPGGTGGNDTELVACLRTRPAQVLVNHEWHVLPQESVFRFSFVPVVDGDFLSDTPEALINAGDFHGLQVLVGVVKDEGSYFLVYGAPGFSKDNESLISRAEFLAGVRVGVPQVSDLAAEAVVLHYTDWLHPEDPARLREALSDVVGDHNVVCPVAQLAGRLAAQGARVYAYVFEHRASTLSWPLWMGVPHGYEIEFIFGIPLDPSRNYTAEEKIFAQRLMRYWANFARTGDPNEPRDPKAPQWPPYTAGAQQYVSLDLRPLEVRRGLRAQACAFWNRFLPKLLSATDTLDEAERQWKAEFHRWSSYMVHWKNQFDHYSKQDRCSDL

O=c1[nH]c2ccccc2n1CCCN1CCC(n2c(=O)[nH]c3cc(Cl)ccc32)CC1 [DOMPERIDONE]
Not Active: IC50 [1] | IC50 [2] | IC50 [3] | IC50 [4] | IC50 [5] | IC50 [6] | IC50 [7] | Ki [7]

O=c1n(CCCN2CCN(c3cccc(Cl)c3)CC2)nc2ccccn12 [TRAZODONE]
Not Active: IC50 [1] | IC50 [2] | IC50 [3] | IC50 [4] | IC50 [5] | IC50 [6] | IC50 [7] | Ki [7]

CCOC(N)=O
Not Active: IC50 [1] | IC50 [2] | IC50 [3] | IC50 [4] | IC50 [5] | IC50 [6] | IC50 [7] | Ki [7]

C#CCN(C)[C@H](C)Cc1ccccc1 [SELEGILINE]
Not Active: IC50 [1] | IC50 [2] | IC50 [3] | IC50 [4] | IC50 [5] | IC50 [6] | IC50 [7] | Ki [7]

Nc1ccc(S(=O)(=O)Nc2ncccn2)cc1 [SULFADIAZINE]
Not Active: IC50 [1] | IC50 [2] | IC50 [3] | IC50 [4] | IC50 [5] | IC50 [6] | IC50 [7] | Ki [7]

C[C@@H]1C[C@H]2[C@@H]3CCC4=CC(=O)C=C[C@]4(C)C3=CC[C@]2(C)[C@H]1C(=O)CN1CCN(c2cc(N3CCCC3)nc(N3CCCC3)n2)CC1 [TIRILAZAD]
Not Active: IC50 [1] | IC50 [2] | IC50 [3] | IC50 [4] | IC50 [5] | IC50 [6] | IC50 [7] | Ki [7]

COc1ncnc(NS(=O)(=O)c2ccc(N)cc2)c1OC [SULFADOXINE]
Not Active: IC50 [1] | IC50 [2] | IC50 [3] | IC50 [4] | IC50 [5] | IC50 [6] | IC50 [7] | Ki [7]

STANNOUS FLUORIDE
Not Active: IC50 [1] | Ki [1] | IC50 [2] | Ki [2] | IC50 [3] | Ki [3] | IC50 [4] | Ki [4] | IC50 [5] | Ki [5] | IC50 [6] | Ki [6] | IC50 [7] | Ki [7]

CC1=C(CC(=O)O)c2cc(F)ccc2/C1=C\c1ccc(S(C)(=O)=O)cc1 [EXISULIND]
Not Active: IC50 [1] | IC50 [2] | IC50 [3] | IC50 [4] | IC50 [5] | IC50 [6] | IC50 [7] | Ki [7]

NC[C@H]1O[C@H](O[C@H]2[C@H](O)[C@@H](O[C@H]3O[C@H](CO)[C@@H](O)[C@H](N)[C@H]3O)[C@H](N)C[C@@H]2N)[C@H](N)C[C@@H]1O [TOBRAMYCIN]
Not Active: IC50 [1] | IC50 [2] | IC50 [3] | IC50 [4] | IC50 [5] | IC50 [6] | IC50 [7] | Ki [7]

O=C(O)C(Cl)(Cl)Cl [TRICHLOROACETIC ACID]
Not Active: IC50 [1] | IC50 [2] | IC50 [3] | IC50 [4] | IC50 [5] | IC50 [6] | IC50 [7] | Ki [7]
